pIC50: −log10 of the molar value. Like-named read-outs stand apart in the source and are kept apart here.
Assays:
wild type NTRK1 enzyme = biological target: T1, wild type NTRK1 enzyme (Homo sapiens, UniProt P04629); assay: NTRK1 Wild Type Assay at 1 mM ATP; type: biochemical; conditions: 1 mM ATP; read-out: Enz NTRK1 IC50
T1 construct: purchased BPS Bioscience 40280
Procedure: NTRK1 Wild Type Assay at 1 mM ATP
The reaction was stopped by the addition of 70 μL of Stop buffer (100 mM HEPES pH 7.5, 0.015% Brij 35, 35 mM EDTA and 0.2% of Coating Reagent 3 (Caliper Lifesciences)). The plate was then read on a Caliper EZReader 2 (protocol settings: −1.7 psi, upstream voltage −500, downstream voltage −3000, post sample sip 35s).

[1] = tested on: KM12 wild type colon carcinoma cell line harboring the TPM3-NTRK1 fusion protein; assay: NTRK wild type cellular assay (CellTiter-Glo growth inhibition); type: cell-based; conditions: 72 hr, CellTiter-Glo, read-out: KM12 (WT) IC50
Outline: (§1)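 KM12 (TPM3-NTRK1 fusion) or KM12 Cliff (G595R) cells at 1000 cells/well in 10% FBS media were dosed with compounds at varying concentrations in duplicate after overnight plating.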

[2] = tested on: KM12 Cliff (G595R) cell line; assay: NTRK G595R mutant cellular assay (CellTiter-Glo growth inhibition); type: cell-based; conditions: 72 hr, CellTiter-Glo
Outline: as §1

T1 sequence (P04629 440-796 limits assumed): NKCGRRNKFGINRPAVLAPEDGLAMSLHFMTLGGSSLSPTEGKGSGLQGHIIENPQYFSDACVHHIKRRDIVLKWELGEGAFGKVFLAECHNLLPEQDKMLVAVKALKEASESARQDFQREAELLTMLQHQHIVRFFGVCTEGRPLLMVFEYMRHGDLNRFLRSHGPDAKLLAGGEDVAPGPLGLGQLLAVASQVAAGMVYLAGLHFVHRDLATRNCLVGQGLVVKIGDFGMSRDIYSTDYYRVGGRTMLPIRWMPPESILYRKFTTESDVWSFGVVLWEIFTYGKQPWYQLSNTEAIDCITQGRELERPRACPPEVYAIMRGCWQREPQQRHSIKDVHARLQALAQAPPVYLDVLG

Row | SMILES | pIC50 (wild type NTRK1 enzyme) | pIC50 [1] | pIC50 ([1]; Homo sapiens, KM12, 72 h) | pIC50 [2] | pIC50 ([2]; Homo sapiens, KM12, 72 h)
1 | CCN(Cc1cc(F)ccc1F)C(=O)c1n[nH]c2ncnc(NC3CCCC3O)c12 (stereo not drawn) [Compound 26] | 7.00 to 8.00 | 7.00 to 8.00 |  | 6.00 to 7.00 | 
2 | CN(Cc1cc(F)cnc1Cl)C(=O)c1n[nH]c2ncnc(NC3COCCC3O)c12 (stereo not drawn) [Compound 149] | > 8.00 | 7.00 to 8.00 |  | 7.00 to 8.00 | 
3 | CN(Cc1cccnc1F)C(=O)c1n[nH]c2ncnc(N[C@@H]3CC[C@@H](O)[C@H]3O)c12 [Compound 133] | 6.00 to 7.00 | 6.00 to 7.00 |  | 6.00 to 7.00 | 
4 | CN(Cc1cc(F)cc(F)c1)C(=O)c1n[nH]c2ncnc(NC3CCC(O)C3O)c12 (stereo not drawn) [Compound 33] | 7.00 to 8.00 | 7.00 to 8.00 |  | 7.00 to 8.00 | 
5 | CN(C(=O)c1n[nH]c2ncnc(NC3CC(C(F)F)CC3O)c12)C(CO)c1cc(F)ccc1F (stereo not drawn) [Compound 180] | > 8.00 | > 8.00 |  | > 8.00 | 
6 | O=C(c1n[nH]c2ncnc(N[C@@H]3COCC[C@H]3O)c12)N1C[C@@H](F)C[C@@H]1c1cc(F)cc(F)c1F [Compound 204] | > 8.00 |  | > 8.00 |  | > 8.00
7 | O=C(c1n[nH]c2ncnc(N[C@@H]3C[C@@H](O)C[C@H]3O)c12)N1C[C@@H](F)C[C@@H]1c1cc(F)ccc1F [Compound 86] | > 8.00 |  | > 8.00 |  | > 8.00
8 | O=C(NCc1cc(F)ccc1F)c1n[nH]c2ncnc(NC3CC(O)CC3O)c12 (stereo not drawn) [Compound 12] | 6.00 to 7.00 |  | 6.00 to 7.00 |  | < 6.00
9 | O=C(c1n[nH]c2ncnc(N[C@@H]3CC[C@@H](O)[C@H]3O)c12)N1C[C@@H](F)C[C@@H]1c1cc(F)ccc1OC(F)(F)F [Compound 240] | > 8.00 |  | > 8.00 |  | > 8.00
10 | CN(Cc1cc(F)cn(C)c1=O)C(=O)c1n[nH]c2ncnc(N[C@@H]3CC[C@@H](O)[C@H]3O)c12 [Compound 147] | 7.00 to 8.00 |  | 6.00 to 7.00 |  | 6.00 to 7.00
11 | O=C(c1n[nH]c2ncnc(N[C@H]3[C@H](O)[C@H](O)[C@@H]4C[C@@H]43)c12)N1C[C@@H](F)C[C@@H]1c1cc(F)ccc1OC(F)(F)F [Compound 242] | > 8.00 | > 8.00 |  | > 8.00 | 
12 | O=C(c1n[nH]c2ncnc(N[C@@H]3C=C[C@@H](O)[C@H]3O)c12)N1C[C@@H](F)C[C@@H]1c1cc(F)cc(F)c1 [Compound 171] | 7.00 to 8.00 | 7.00 to 8.00 |  | 7.00 to 8.00 | 
13 | O=C(N[C@@H](c1cc(F)ccc1F)C(F)(F)F)c1n[nH]c2ncnc(N[C@@H]3COCC[C@H]3O)c12 [Compound 103] | < 6.00 |  | < 6.00 |  | < 6.00
14 | O=C(c1n[nH]c2ncnc(N[C@@H]3CC[C@@H](O)[C@H]3O)c12)N1C[C@@H](F)C[C@@H]1c1cc(F)cc(F)c1 [Compound 173] | > 8.00 |  | > 8.00 |  | > 8.00
15 | CN(Cc1cc(F)ccc1OC(F)(F)F)C(=O)c1n[nH]c2ncnc(NC3COCC(O)C3O)c12 (stereo not drawn) [Compound 228] | 7.00 to 8.00 | 7.00 to 8.00 |  | 7.00 to 8.00 | 
16 | CN(Cc1cc(F)cc(F)c1F)C(=O)c1n[nH]c2ncnc(N[C@@H]3COC[C@@H](O)[C@H]3O)c12 [Compound 164] | 7.00 to 8.00 |  | 7.00 to 8.00 |  | 7.00 to 8.00
17 | O=C(c1n[nH]c2ncnc(N[C@@H]3CC[C@@H](O)[C@H]3O)c12)N1C[C@@H](F)C[C@@H]1c1cccc(F)c1F [Compound 176] | > 8.00 | 7.00 to 8.00 |  | 7.00 to 8.00 | 
18 | N#C[C@H]1C[C@@H](O)[C@H](Nc2ncnc3[nH]nc(C(=O)N4C[C@@H](F)C[C@@H]4c4cc(F)cc(F)c4F)c23)C1 [Compound 212] | > 8.00 | > 8.00 |  | > 8.00 | 
19 | O=C(NCc1cc(F)ccc1F)c1n[nH]c2ncnc(NC3CC(F)CC3O)c12 (stereo not drawn) [Compound 15] | 6.00 to 7.00 | 6.00 to 7.00 |  | < 6.00 | 

Second part, led by results:

Row | pIC50 (wild type NTRK1 enzyme) | pIC50 [1] | pIC50 ([1]; Homo sapiens, KM12, 72 h) | SMILES | pIC50 [2] | pIC50 ([2]; Homo sapiens, KM12, 72 h)
20 | 6.00 to 7.00 | 6.00 to 7.00 |  | O=C(NCc1cc(F)ccc1F)c1n[nH]c2ncnc(NC3CCC(O)C3O)c12 (stereo not drawn) [Compound 10] | < 6.00 | 
21 | > 8.00 | > 8.00 |  | N#CC1CC(O)C(Nc2ncnc3[nH]nc(C(=O)N4CC(F)CC4c4cc(F)ccc4F)c23)C1 (stereo not drawn) [Compound 184] | > 8.00 | 
22 | > 8.00 |  | > 8.00 | O=C(c1n[nH]c2ncnc(N[C@H]3[C@H](O)[C@H](O)[C@@H]4C[C@@H]43)c12)N1C[C@@H](F)C[C@@H]1c1cc(F)ccc1Cl [Compound 213] |  | > 8.00
23 | > 8.00 |  | > 8.00 | CS(=O)(=O)C1CC(O)C(Nc2ncnc3[nH]nc(C(=O)N4CC(F)CC4c4cc(F)ccc4F)c23)C1 (stereo not drawn) [Compound 116] |  | > 8.00
24 | 6.00 to 7.00 |  | 7.00 to 8.00 | O=C(c1n[nH]c2ncnc(N[C@@H]3CCOC[C@H]3O)c12)N1C[C@@H](F)C[C@@H]1c1ccccc1 [Compound 145] |  | 6.00 to 7.00
25 | > 8.00 | > 8.00 |  | O=C(c1n[nH]c2ncnc(N[C@@H]3C=C[C@@H](O)[C@H]3O)c12)N1C[C@@H](F)C[C@@H]1c1cc(F)ccc1F [Compound 170] | > 8.00 | 
26 | > 8.00 |  | 7.00 to 8.00 | O=C(c1n[nH]c2ncnc(N[C@@H]3CC[C@@H](O)[C@H]3O)c12)N1C[C@@H](F)C[C@@H]1c1cc(F)ccc1OC(F)F [Compound 237] |  | 7.00 to 8.00
27 | 6.00 to 7.00 | < 6.00 |  | O=C(NCc1cc(F)ccc1F)c1n[nH]c2ncnc(NC3CC(F)(F)CC3O)c12 (stereo not drawn) [Compound 42] | < 6.00 | 
28 | > 8.00 |  | 7.00 to 8.00 | O=C(c1n[nH]c2ncnc(N[C@@H]3COC[C@@H](O)[C@H]3O)c12)N1C[C@@H](F)C[C@@H]1c1cc(F)cc(F)c1 [Compound 197] |  | 7.00 to 8.00
29 | > 8.00 |  | 7.00 to 8.00 | CN(Cc1cc(F)ccc1F)C(=O)c1n[nH]c2ncnc(N[C@@H]3CCC[C@H]3O)c12 [Compound 6] |  | 7.00 to 8.00
30 | > 8.00 |  | > 8.00 | O=C(c1n[nH]c2ncnc(N[C@H]3[C@H](O)[C@H](O)[C@@H]4C[C@@H]43)c12)N1C[C@@H](F)C[C@@H]1c1cccc(F)c1 [Compound 122] |  | > 8.00
31 | 7.00 to 8.00 | 7.00 to 8.00 |  | O=C(c1n[nH]c2ncnc(NC3CC(F)CC3O)c12)N1CC(F)CC1c1cc(F)cnc1Cl (stereo not drawn) [Compound 207] | 7.00 to 8.00 | 
32 | 7.00 to 8.00 |  | 7.00 to 8.00 | O=C(NCc1cc(F)ccc1F)c1n[nH]c2ncnc(N[C@@H]3COCC[C@H]3O)c12 [Compound 8] |  | 6.00 to 7.00
33 | > 8.00 |  | 7.00 to 8.00 | CN(Cc1cc(F)ccc1F)C(=O)c1n[nH]c2ncnc(N[C@@H]3COCC[C@H]3O)c12 [Compound 29] |  | 7.00 to 8.00
34 | 7.00 to 8.00 |  | 6.00 to 7.00 | O=C(N[C@H](CO)c1cc(F)ccc1F)c1n[nH]c2ncnc(N[C@@H]3COCC[C@H]3O)c12 [Compound 56] |  | 6.00 to 7.00
35 | 7.00 to 8.00 |  | 7.00 to 8.00 | CN(Cc1cccc(F)c1)C(=O)c1n[nH]c2ncnc(N[C@@H]3CC[C@@H](O)[C@H]3O)c12 [Compound 132] |  | 6.00 to 7.00
36 | 7.00 to 8.00 |  | 6.00 to 7.00 | O=C(NCc1cc(F)ccc1F)c1n[nH]c2ncnc(N[C@@H]3CCC[C@@H](O)[C@H]3O)c12 [Compound 32] |  | 6.00 to 7.00
37 | 7.00 to 8.00 |  | 7.00 to 8.00 | O=C(c1n[nH]c2ncnc(N[C@@H]3CC[C@@H](O)[C@H]3O)c12)N1CCC[C@@H]1c1cc(F)ccc1F [Compound 71] |  | 6.00 to 7.00
38 | 7.00 to 8.00 | 7.00 to 8.00 |  | CN(Cc1cccc(C#N)c1F)C(=O)c1n[nH]c2ncnc(N[C@@H]3CC[C@@H](O)[C@H]3O)c12 [Compound 142] | 6.00 to 7.00 | 
39 | > 8.00 |  | > 8.00 | O=C(c1n[nH]c2ncnc(N[C@@H]3COC[C@H]3O)c12)N1C[C@@H](F)C[C@@H]1c1cc(F)ccc1F [Compound 78] |  | 7.00 to 8.00

— US11046697B2, “Compounds and compositions useful for treating disorders related to NTRK” (BLUEPRINT MEDICINES CORPORATION, priority 2015, dated 2021)
